System: M. tuberculosis ompA mutant
Assay type: cell-based

CC[C@H]1OC(=O)[C@H](C)[C@@H](O[C@H]2C[C@@](C)(OC)[C@@H](O)[C@H](C)O2)[C@H](C)[C@@H](O[C@@H]2O[C@H](C)C[C@H](N(C)C)[C@H]2O)[C@](C)(O)C[C@@H](C)C(=O)[C@H](C)[C@@H](O)[C@]1(C)O [erythromycin]
Sensitivity of M. tuberculosis ompA mutant compared to wild type: slightly increased resistance

CN[C@H](CC(C)C)C(=O)N[C@H]1C(=O)N[C@@H](CC(N)=O)C(=O)N[C@H]2C(=O)N[C@H]3C(=O)N[C@H](C(=O)N[C@H](C(=O)O)c4cc(O)cc(O)c4-c4cc3ccc4O)[C@H](O)c3ccc(c(Cl)c3)Oc3cc2cc(c3O[C@@H]2O[C@H](CO)[C@@H](O)[C@H](O)[C@H]2O[C@H]2C[C@](C)(N)[C@H](O)[C@H](C)O2)Oc2ccc(cc2Cl)[C@H]1O [vancomycin]
Sensitivity of M. tuberculosis ompA mutant compared to wild type: slightly increased resistance

Source: article PMC3158675, “Effective inhibitors of the essential kinase PknB and their potential as anti-mycobacterial agents” (Tuberculosis (Edinburgh, Scotland), 2011)
